Data published in the NIST ThermoML archive (doi:10.1021/je700350b).
± gives the expanded uncertainty stated by the source.

Columns and labels:
[1] = xn = mol fraction of the nth substance listed; conditions: x2 = 0; for surface tension liquid-gas: Ring tensiometer; for viscosity: 101.33 kPa, Liquid
[2] = 101.33 kPa, Liquid, Vibrating tube method

| Compound | surface tension liquid-gas ([1]; 283.15 K) | surface tension liquid-gas ([1]; 288.15 K) | surface tension liquid-gas ([1]; 293.15 K) | surface tension liquid-gas ([1]; 298.15 K) | viscosity ([1]; 298.15 K) | surface tension liquid-gas ([1]; 303.15 K) | viscosity ([1]; 303.15 K) | mass density ([2]; 293.15 K) | mass density ([2]; 298.15 K) |
| --- | --- | --- | --- | --- | --- | --- | --- | --- | --- |
| O [water] + CCN(CC)CCO | 73.74 ± 2.3 mN/m | 73.14 ± 2.2 mN/m | 72.59 ± 2.2 mN/m | 71.84 ± 2.2 mN/m | 0.89 ± 0.014 mPa·s | 71.2 ± 0.98 mN/m | 0.794 ± 0.013 mPa·s |  |  |
| CCN(CC)CCO [(diethylamino)ethanol] |  |  |  |  |  |  |  | 884.14 ± 0.3 kg/m3 | 879.5 ± 0.3 kg/m3 |
